Experimental data reported in publication PMC5700336, “The Gastrointestinal Tract Is a Major Source of Echinocandin Drug Resistance in a Murine Model of Candida glabrata Colonization and Systemic Dissemination” (Antimicrobial Agents and Chemotherapy, 2017).

Tests used:
[1] = Single-dose pharmacokinetics in plasma and GI lumen contents; format: in vivo, mice; settings: LC-MS/MS; for large intestine mean Cmax / small intestine mean Cmax: lumen contents, mean of three mice
Description: Mice were colonized with ATCC 2001 and then treated (i.p.) once with 5 or 20 mg/kg caspofungin at time zero (2 days postinoculation). Three mice from each treatment group were sacrificed at each time point (0, 1, 2, 4, 8, 16, 24, and 48 h), and blood and small and large intestinal lumen contents (without intestinal walls) were collected. Fecal pellets were also collected from mice at 0, 4, 16, 24, and 48 h prior to sacrifice. Caspofungin levels in plasma and GI compartments were measured by liquid chromatography-tandem mass spectrometry (LC-MS/MS) in electrospray positive-ionization mode (ESI+) on an AB Sciex QTrap 4000 triple-quadrupole mass spectrometer combined with an Agilent 1260 high-performance liquid chromatograph (HPLC) using the Analyst software and multiple-reaction monitoring (MRM) of precursor/product transitions. The MRM transitions used were 547.50/538.40 for caspofungin and 455.4/165.2 for the internal standard verapamil. Chromatography was performed with an Agilent Zorbax SB-C8 column (2.1 by 30 mm; particle size, 3.5 μm) using a reverse-phase gradient elution. One-tenth percent formic acid in Milli-Q deionized water was used for the aqueous mobile phase and 0.1% formic acid in acetonitrile (ACN) for the organic mobile phase. Small and large intestinal contents were homogenized prior to extraction by combining 3 parts PBS buffer to 1 part GI tract contents. One milligram per milliliter dimethyl sulfoxide (DMSO) stock was serially diluted in 50/50 ACN-water to create standard curves and quality control spiking solutions. Twenty microliters of neat spiking solutions was added to 20 μl of drug-free mouse K2EDTA plasma (Bioreclamation) or GI tract homogenate, and extraction was performed by adding 200 μl of acetonitrile-methanol 50/50 protein precipitation solvent containing 10 ng/ml verapamil (Sigma). Extracts were vortexed for 5 min and centrifuged at 4,000 rpm for 5 min. The supernatants were analyzed by LC-MS. Sample analysis was accepted if the concentrations of the quality control samples were within 20% of the nominal concentration.

[2] = tested on: C. glabrata ATCC 2001; assay: GI yeast burden after a single caspofungin dose; format: in vivo, Candida glabrata
[3] = tested on: C. glabrata 2001 Δmsh2; assay: Systemic breakthrough (blood and organs) after dexamethasone immunosuppression; format: in vivo, Candida glabrata; settings: day 15
Description: Six-week-old female outbred CF-1 immunocompetent mice (Charles River Laboratories) were treated (subcutaneously [s.c.]) with 320 mg/kg of piperacillin-tazobactam (PTZ; 8:1 ratio) beginning on day −2 to clear native intestinal bacterial flora. Daily PTZ treatment was maintained throughout the experiment (see Fig. 3A). On day 0, mice were inoculated via oral gavage with approximately 1.5 × 10^8 CFU of C. glabrata in 100 μl of saline. Mice were colonized with ATCC 2001 (CBS 138), clinical strains from the Perlin Laboratory collection, or mutator strain 2001 Δmsh2 ([19]). Fresh fecal samples were collected throughout the experiment to assess fungal burden in the GI tract. Daily administration of caspofungin (0.5, 5, or 20 mg/kg, i.p.), nikkomycin Z (100 mg/kg, oral) (Sigma), or saline (100 μl i.p.) was initiated on day 3 postinoculation and continued through sacrifice day (typically day 15). Caspofungin-resistant colony frequencies were determined through selection of fecal samples on yeast extract-peptone-dextrose (YPD) plates supplemented with caspofungin (2 μg/ml), PTZ (16 μg/ml), and chloramphenicol (20 μg/ml). The corticosteroid dexamethasone (DMX) was administered twice daily (100 mg/kg, i.p.) for 3 days (days 12 to 14) prior to euthanization (day 15; Fig. 3A). […]

[4] = tested on: C. glabrata 2001 Δmsh2; assay: Murine C. glabrata GI colonization model: GI/fecal burden under daily treatment; format: in vivo, Candida glabrata
Description: Six-week-old female outbred CF-1 immunocompetent mice (Charles River Laboratories) were treated (subcutaneously [s.c.]) with 320 mg/kg of piperacillin-tazobactam (PTZ; 8:1 ratio) beginning on day −2 to clear native intestinal bacterial flora. Daily PTZ treatment was maintained throughout the experiment (see Fig. 3A). On day 0, mice were inoculated via oral gavage with approximately 1.5 × 10^8 CFU of C. glabrata in 100 μl of saline. Mice were colonized with ATCC 2001 (CBS 138), clinical strains from the Perlin Laboratory collection, or mutator strain 2001 Δmsh2 ([19]). Fresh fecal samples were collected throughout the experiment to assess fungal burden in the GI tract. Daily administration of caspofungin (0.5, 5, or 20 mg/kg, i.p.), nikkomycin Z (100 mg/kg, oral) (Sigma), or saline (100 μl i.p.) was initiated on day 3 postinoculation and continued through sacrifice day (typically day 15). Caspofungin-resistant colony frequencies were determined through selection of fecal samples on yeast extract-peptone-dextrose (YPD) plates supplemented with caspofungin (2 μg/ml), PTZ (16 μg/ml), and chloramphenicol (20 μg/ml). The corticosteroid dexamethasone (DMX) was administered twice daily (100 mg/kg, i.p.) for 3 days (days 12 to 14) prior to euthanization (day 15; Fig. 3A). Blood, kidneys, liver, spleen, and the gastrointestinal tract components were collected on day 15 (or earlier where indicated), homogenized, and plated onto YPD plates supplemented with chloramphenicol (75 μg/ml) and ampicillin (50 μg/ml) to determine CFU levels.

[5] = tested on: C. glabrata wild-type and Δmsh2 cells; assay: In vitro killing assay; format: cell-based, Candida glabrata; settings: 128 μg/ml nikkomycin Z, caspofungin 0.016 to 32 μg/ml, RPMI, 37°C, 24 h; three independent experiments
Description: Fresh 1-ml RPMI cultures (plus necessary amino acids) of C. glabrata (1 × 10^7 cells) were incubated at 37°C while shaking (165 rpm) for 24 h in 2-fold increasing concentrations (0.016 to 32 μg/ml) of caspofungin and in the presence (128 μg/ml) or absence of nikkomycin Z. After 24 h, 100 μl of the appropriate dilutions for each culture was plated onto YPD plates. CFU were counted 24 h after plating and data represented as the CFU per milliliter that survived at each concentration of drug.

[6] = tested on: C. glabrata Δmsh2 mutant cells; assay: In vitro caspofungin-resistant colony frequency after nikkomycin pretreatment; format: cell-based, Candida glabrata; settings: cells incubated with nikkomycin Z for 2 h prior to plating on agar with 2 μg/ml caspofungin
Description: FIG 4 Nikkomycin reduces C. glabrata caspofungin resistance and tolerance formation in vitro. (A) Caspofungin-resistant colony frequencies following selection on agar plates containing 2 μg/ml caspofungin. Cells were incubated with the indicated concentrations of nikkomycin Z for 2 h prior to plating. (B) Killing assay with strains grown in the presence or absence of 128 μg/ml nikkomycin Z (Nz) and increasing concentrations of caspofungin. The mean counts from three independent biological experiments ± standard deviations are shown.

[7] = single i.p. dose, both 5 and 20 mg/kg, lumen contents without intestinal walls, three mice per time point

SMILES | Tmax ([1]; mouse, plasma, ip, single i.p. dose, both 5 and 20 mg/kg, colonized CF-1 mice, three mice per time point, read-out: time of Cmax, plasma) [h] | large intestine mean Cmax ([1]; single i.p. dose 5 mg/kg) [ng/mL] | small intestine mean Cmax ([1]; single i.p. dose 5 mg/kg) [ng/mL] | large intestine mean Cmax ([1]; single i.p. dose 20 mg/kg) [ng/mL] | small intestine mean Cmax ([1]; single i.p. dose 20 mg/kg) [ng/mL] | time of Cmax, large intestine [1, 7] [h] | time of Cmax, small intestine [1, 7] [h] | GI burden levels after single dose ([2]; single i.p. dose 5 mg/kg) | GI burden levels after single dose ([2]; single i.p. dose 20 mg/kg) | bloodstream infection ([3]; caspofungin 5 mg/kg i.p. daily) | bloodstream infection ([3]; caspofungin 20 mg/kg i.p. daily) | change in GI burden ([4]; caspofungin 0.5 mg/kg i.p. daily) | change in GI burden ([4]; caspofungin 5 mg/kg i.p. daily) | decrease in average GI burden ([4]; caspofungin 20 mg/kg i.p. daily from day 3, following 5 days of treatment, 10 mice per group) [log] | GI burden after rebound to baseline ([4]; caspofungin 20 mg/kg i.p. daily, by day 11) | decrease in fecal burden ([4]; following 4 days of 20 mg/kg caspofungin) [log] | average decrease of colonization levels throughout the GI tract ([4]; following 4 days of 20 mg/kg caspofungin, one mouse per condition) [log] | effect on killing by caspofungin [5] | effect on caspofungin-resistant colony frequency [6]
CC[C@H](C)C[C@H](C)CCCCCCCCC(=O)N[C@H]1C[C@@H](O)[C@@H](NCCN)NC(=O)[C@@H]2[C@@H](O)CCN2C(=O)[C@H]([C@H](O)CCN)NC(=O)[C@H]([C@H](O)[C@@H](O)c2ccc(O)cc2)NC(=O)[C@@H]2C[C@@H](O)CN2C(=O)[C@H]([C@@H](C)O)NC1=O [caspofungin] | 2 | 3800 | 9100 | 36200 | 22200 | 8 | 4 | minimal decrease and faster recovery to baseline | decreased by 16 h and then returned to original baseline levels by 48 h | no isolates were recovered from the blood | no isolates were recovered from the blood | unchanged | unchanged | ~2.5 | ~1 × 10^8 CFU/g of stool | 2.8 | 2.7 |  | 
C[C@@H]([C@H](N)C(=O)N[C@H](C(=O)O)[C@H]1O[C@@H](n2ccc(=O)[nH]c2=O)[C@H](O)[C@@H]1O)[C@H](O)c1ccc(O)cn1 [nikkomycin, nikkomycin Z] |  |  |  |  |  |  |  |  |  |  |  |  |  |  |  |  |  | increased the killing ability of caspofungin | reduced the frequency of caspofungin-resistant mutants
